Reference: patent US9770026B2, “Substituted pyrimidine compound and uses thereof” (Shenyang Sinochem Agrochemicals R&D Co., Ltd., priority 2012, dated 2017)

How the values were obtained:
rice blast = assay: microbe, parasite or virus in culture; format: cell-based; conditions: for inhibition at 25 ppm: read-out: inhibition rate against rice blast, 25 ppm, in vitro; for inhibition rate against rice blast: in vitro; for inhibition at 8.3 ppm: read-out: inhibition rate against rice blast, 8.3 ppm, in vitro
corn rust = assay: protectant activity in vivo against corn rust; conditions: for pest or weed control at 400 ppm: read-out: protectant activity against corn rust in vivo, 400 ppm
cucumber downy mildew = assay: protectant activity in vivo against cucumber downy mildew; conditions: for pest or weed control at 400 ppm: read-out: protectant activity against cucumber downy mildew in vivo, 400 ppm; for control effect against cucumber downy mildew (%): protectant activity
[1] = test system: Green peach aphids (Myzus Persicae Sulzer); assay: bioactivity test against green peach aphid, airbrush foliar spray; format: in vivo; conditions: death rate after 48 hrs
Procedure, shortened: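 Death rate was scored at 48 hrs, held at 25±1 C and 60±5% RH, following airbrush foliar spray (0.5 mL, 10 psi) onto cabbage leaf discs bearing about 15-30 aphids. Test solutions: compound dissolved in 1:1 acetone:methanol, brought to concentration with 0.1% tween 80 water.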

carmine spider mite = assay: bioactivity test against carmine spider mite, airbrush spray; format: in vivo; conditions: mortality after 72 hrs
Procedure, shortened: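 Broadbean seedlings infested with adult mites were sprayed with compound (acetone/methanol stock diluted in 0.1% Tween 80 water) by airbrush at 0.7 kg/cm^2, 0.5 ml. Three replicates were run. Mortality was scored after 72 hrs.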

wheat powdery mildew = assay: protectant activity in vivo against wheat powdery mildew; conditions: for pest or weed control at 100 ppm: read-out: protectant activity against wheat powdery mildew in vivo, 100 ppm; for pest or weed control at 400 ppm: read-out: protectant activity against wheat powdery mildew in vivo, 400 ppm; for protectant activity against wheat powdery mildew in vivo: 400 ppm
armyworm = assay: bioactivity test against armyworm, airbrush spray; format: in vivo; conditions: for control (test results against armyworm): 600 ppm, mortality after 72 h
Diamond back moth = assay: insecticidal activity against diamond back moth, airbrush spray; format: in vivo; conditions: for control (test results against diamond back moth): mortality after 72 hrs
Procedure, shortened: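 Airbrush leaf-disc spray test: both faces of 2 cm cabbage discs received 0.5 ml of test solution at 0.7 kg/cm^2. Solutions were made in acetone:methanol (1:1) and brought to concentration with 0.1% Tween 80 in water. Ten second-instar larvae per disc, triplicates, were held at 25° C and 60˜70% R.H., with mortality recorded at 72 hrs.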

[2] = Myzus persicae, foliar, 48 h, 100 ppm
[3] = Myzus persicae, foliar, 48 h, 600 ppm

Compound: Cc1cc(Cl)ccc1Oc1ccc(CCNc2ncnc(Cl)c2Cl)cn1 [III-2630]
- inhibition at 25 ppm (rice blast; Pyricularia oryzae): 80 to 99%
- pest or weed control at 400 ppm (corn rust; Zea mays, 168 h): 100%
- pest or weed control at 50 ppm (cucumber downy mildew; Cucumis sativus, 168 h, read-out: protectant activity against cucumber downy mildew in vivo, 50 ppm): 80 to 99%
- pest or weed control at 100 ppm (cucumber downy mildew; Cucumis sativus, 168 h, read-out: protectant activity against cucumber downy mildew in vivo, 100 ppm): 80 to 99%
- pest or weed control at 400 ppm (cucumber downy mildew; Cucumis sativus, 168 h): 100%

Compound: FC(F)(F)c1ccc(Oc2ccc(CCNc3ncnc(CCl)c3Cl)cc2)nc1 [Compound I-2922]
- inhibition rate against rice blast (rice blast; 0.1 ppm): 100%
- inhibition rate against rice blast (rice blast; 0.3 ppm): 100%
- inhibition rate against rice blast (rice blast; 0.9 ppm): 100%
- inhibition rate against rice blast (rice blast; 2.8 ppm): 100%
- inhibition rate against rice blast (rice blast; 8.3 ppm): 100%
- protectant activity against corn rust in vivo (corn rust; 100 ppm): 100%
- protectant activity against corn rust in vivo (corn rust; 400 ppm): 100%

Compound: CCc1nc(C)nc(NCCc2ccc(Oc3ncc(C(N)=O)cc3Cl)cc2)c1Cl [Compound I-6791]
- inhibition at 25 ppm (rice blast; Pyricularia oryzae): 80 to 99%
- pest or weed control at 100 ppm (corn rust; Zea mays, 168 h, read-out: protectant activity against corn rust in vivo, 100 ppm): 80 to 99%
- pest or weed control at 400 ppm (corn rust; Zea mays, 168 h): 100%

Compound: Cc1ncnc(NCCc2ccc(Oc3ncc(C(F)(F)Cl)cc3Cl)cc2)c1Cl [Compound I-483]
- inhibition at 0.1 ppm (rice blast; Pyricularia oryzae, read-out: inhibition rate against rice blast, 0.1 ppm, in vitro): 100%
- inhibition at 0.3 ppm (rice blast; Pyricularia oryzae, read-out: inhibition rate against rice blast, 0.3 ppm, in vitro): 100%
- inhibition at 0.9 ppm (rice blast; Pyricularia oryzae, read-out: inhibition rate against rice blast, 0.9 ppm, in vitro): 100%
- inhibition at 2.8 ppm (rice blast; Pyricularia oryzae, read-out: inhibition rate against rice blast, 2.8 ppm, in vitro): 100%
- inhibition at 8.3 ppm (rice blast; Pyricularia oryzae): 100%
- inhibition at 25 ppm (rice blast; Pyricularia oryzae): 100%
- pest or weed control at 100 ppm [1, 2]: 100%
- pest or weed control at 600 ppm [1, 3]: 100%
- pest or weed control at 100 ppm (carmine spider mite; Tetranychus cinnabarinus, 72 h, 100 ppm): 80 to 99%
- pest or weed control at 600 ppm (carmine spider mite; Tetranychus cinnabarinus, 72 h, 600 ppm): 100%
- pest or weed control at 400 ppm (corn rust; Zea mays, 168 h): 100%
- pest or weed control at 100 ppm (wheat powdery mildew; Triticum aestivum, 168 h): 80 to 99%
- pest or weed control at 400 ppm (wheat powdery mildew; Triticum aestivum, 168 h): 80 to 99%
- pest or weed control at 400 ppm (cucumber downy mildew; Cucumis sativus, 168 h): 100%

Compound: CCc1nc(C)nc(NCCc2ccc(Oc3ncccc3C(F)(F)F)cc2)c1Cl [Compound I-6793]
- inhibition at 25 ppm (rice blast; Pyricularia oryzae): 80 to 99%
- pest or weed control at 10 ppm ([1]; Myzus persicae, foliar, 48 h, 10 ppm): 80 to 99%
- pest or weed control at 100 ppm [1, 2]: 100%
- pest or weed control at 600 ppm [1, 3]: 100%
- pest or weed control at 400 ppm (corn rust; Zea mays, 168 h): 100%
- pest or weed control at 25 ppm (wheat powdery mildew; Triticum aestivum, 168 h, read-out: protectant activity against wheat powdery mildew in vivo, 25 ppm): 100%
- pest or weed control at 100 ppm (wheat powdery mildew; Triticum aestivum, 168 h): 100%
- pest or weed control at 400 ppm (wheat powdery mildew; Triticum aestivum, 168 h): 100%
- pest or weed control at 400 ppm (cucumber downy mildew; Cucumis sativus, 168 h): 80 to 99%

Compound: Cc1c(Cl)c(NCCc2ccc(Oc3ccc(C(F)(F)F)cn3)cc2)nc[n+]1CC(=O)c1ccc(Cl)cc1 [CK49, reference compound]
- inhibition at 8.3 ppm (rice blast; Pyricularia oryzae): 0%
- inhibition at 25 ppm (rice blast; Pyricularia oryzae): < 50%
- pest or weed control at 600 µg/mL (armyworm; 72 h, 600 mg/L, read-out: Insecticidal activity against armyworm (%)): 17%
- pest or weed control at 6.25 µg/mL (corn rust; Zea mays, 168 h, read-out: control effect against corn rust (%), 6.25 mg/L, protectant activity): 0%
- pest or weed control at 25 µg/mL (corn rust; Zea mays, 168 h, read-out: control effect against corn rust (%), 25 mg/L, protectant activity): 0%
- pest or weed control at 100 µg/mL (corn rust; Zea mays, 168 h, read-out: control effect against corn rust (%), 100 mg/L, protectant activity): 30%
- pest or weed control at 400 µg/mL (corn rust; Zea mays, 168 h, read-out: control effect against corn rust (%), 400 mg/L, protectant activity): 85%

Compound: CCc1ncnc(NCCc2ccc(Oc3cccc(C(F)(F)F)c3)nc2)c1Cl [III-201]
- control (test results against diamond back moth) (Diamond back moth; 600 ppm): 100%
- control (test results against armyworm) (armyworm): 100%
- control (test results against green peach aphid) ([1]; 100 ppm): 100%
- control (test results against green peach aphid) ([1]; 600 ppm): 100%
- control against carmine spider mite (carmine spider mite; 600 ppm): 100%
- protectant activity against corn rust in vivo (corn rust; 100 ppm): 100%
- protectant activity against corn rust in vivo (corn rust; 400 ppm): 100%
- protectant activity against wheat powdery mildew in vivo (wheat powdery mildew): 100%
- control effect against cucumber downy mildew (%) (cucumber downy mildew; 12.5 mg/L): 98%
- control effect against cucumber downy mildew (%) (cucumber downy mildew; 25 mg/L): 100%
- control effect against cucumber downy mildew (%) (cucumber downy mildew; 50 mg/L): 100%
- control effect against cucumber downy mildew (%) (cucumber downy mildew; 100 mg/L): 100%
- control effect against cucumber downy mildew (%) (cucumber downy mildew; 400 mg/L): 100%
- protectant activity against cucumber downy mildew in vivo (cucumber downy mildew; 25 ppm): 100%
- protectant activity against cucumber downy mildew in vivo (cucumber downy mildew; 50 ppm): 100%
- protectant activity against cucumber downy mildew in vivo (cucumber downy mildew; 100 ppm): 100%
- protectant activity against cucumber downy mildew in vivo (cucumber downy mildew; 400 ppm): 100%

Compound: CCc1ncnc(NCCc2ccc(Oc3ccc(C)cc3)nc2)c1Cl [III-196]
- Insecticidal activity against diamond back moth (%) (Diamond back moth; 100 mg/L): 100%
- Insecticidal activity against diamond back moth (%) (Diamond back moth; 600 mg/L): 100%
- control (test results against diamond back moth) (Diamond back moth; 100 ppm): 100%
- control (test results against diamond back moth) (Diamond back moth; 600 ppm): 100%
- control (test results against armyworm) (armyworm): 100%
- control (test results against green peach aphid) ([1]; 100 ppm): 100%
- control (test results against green peach aphid) ([1]; 600 ppm): 100%
- control against carmine spider mite (carmine spider mite; 600 ppm): 100%
- protectant activity against corn rust in vivo (corn rust; 400 ppm): 100%
- protectant activity against wheat powdery mildew in vivo (wheat powdery mildew): 100%
- control effect against cucumber downy mildew (%) (cucumber downy mildew; 6.25 mg/L): 85%
- control effect against cucumber downy mildew (%) (cucumber downy mildew; 12.5 mg/L): 85%
- control effect against cucumber downy mildew (%) (cucumber downy mildew; 25 mg/L): 100%
- control effect against cucumber downy mildew (%) (cucumber downy mildew; 50 mg/L): 100%
- control effect against cucumber downy mildew (%) (cucumber downy mildew; 100 mg/L): 100%
- control effect against cucumber downy mildew (%) (cucumber downy mildew; 400 mg/L): 100%
- protectant activity against cucumber downy mildew in vivo (cucumber downy mildew; 25 ppm): 100%
- protectant activity against cucumber downy mildew in vivo (cucumber downy mildew; 50 ppm): 100%
- protectant activity against cucumber downy mildew in vivo (cucumber downy mildew; 100 ppm): 100%
- protectant activity against cucumber downy mildew in vivo (cucumber downy mildew; 400 ppm): 100%
